# Laboratory results published in paper PMC11822212, “High-throughput screening identifies Aurora kinase B as a critical therapeutic target for Merkel cell carcinoma” (Nature Communications, 2025).
# Columns and labels:
# Type in all cases: cell-based, human
# [1] = tested on: WAGA cells (VP-MCC); test: qHTS cell viability (CellTiter-Glo, 72 h; primary and follow-up small molecule screen); conditions: WAGA; for Percent viability: 72h
# [2] = tested on: VP-MCC cell lines (WAGA, MKL-1, MKL-2); test: qHTS cell viability, VP-MCC cell lines as a group (mean AUC, VP.MCC.avg); conditions: re-tested in triplicate, follow-up screen
# [3] = tested on: UISO cells (VN-MCC); test: qHTS cell viability (CellTiter-Glo, 72 h; primary and follow-up small molecule screen); conditions: UISO; for Percent viability: 72h
# [4] = tested on: MKL-2 cells (VP-MCC); test: as above; conditions: for Percent viability: MKL2, 72h
# [5] = tested on: MCC26 cells (VN-MCC); test: as above; conditions: for Percent viability: MCC26, 72h
# [6] = tested on: GDSC cancer cell lines; test: Genomics of Drug Sensitivity in Cancer (GDSC) IC50 comparison across cancer cell lines; conditions: own IC50 estimates compared with public IC50 data
# Protocol: Palo Alto, CA, USA) for these compounds from our small molecule screen. Following the graphing format in the GDSC database, compounds were ranked by IC50 and plotted in Rstudio using ggplot2, ggrepel, and scales packages. page 9: Supplementary Fig. S6. Au rora kinase inhibi tors mor e potentl y reduc e viability in VP-MCC than VN-MCC. […] Cell viability was measured by CellTiter- Glo at 72 h and by manual cell counts at 144 h. […] Consistent across n = 3 replicates . B) IC50 values (molar) for each aurora kinase inhibitor in each MCC cell line. […] IC50 values from GDSC (Gray-scale and green) were combined with IC50 values determined in our study (purple) and then ranked. n = number of experimental replicates for each cell line.
# [7] = tested on: MKL-1 cells (VP-MCC); test: qHTS cell viability (CellTiter-Glo, 72 h; primary and follow-up small molecule screen); conditions: for Percent viability: MKL1, 72h
# [8] = tested on: MCC13 cells (VN-MCC); test: as above; conditions: for Percent viability: MCC13, 72h
structure (smiles),measurement,setting,value
"Cc1cc(Nc2cc(N3CCN(C)CC3)nc(Sc3ccc(NC(=O)C4CC4)cc3)n2)[nH]n1 [Tozasertib, reference compound]",Percent viability,[1]; Log (M) -5.33646,23.8%
same,Percent viability,[1]; Log (M) -5.81358,31.7%
same,Percent viability,[1]; Log (M) -6.2907,25.7%
same,Percent viability,[1]; Log (M) -6.76782,41.2%
same,Percent viability,[1]; Log (M) -7.24494,47.8%
same,Percent viability,[1]; Log (M) -8.19919,107.2%
same,Percent viability,[1]; Log (M) -8.67631,105.4%
same,Percent viability,[1]; Log (M) -9.15343,101.2%
same,Percent viability,[1]; Log (M) -9.63055,100.0%
same,Percent viability,[1]; Log (M) -10.1077,100.0%
same,Area under the dose-response curve (AUC) WAGA Replicate 1,"[1]; follow-up screen, replicate 1",353.1
same,Area under the dose-response curve (AUC) WAGA Replicate 2,"[1]; follow-up screen, replicate 2",343.3
same,Area under the dose-response curve (AUC) WAGA Replicate 3,"[1]; follow-up screen, replicate 3",330.6
same,VP-MCC viability (in words),[2],consistently and potently reduced VP-MCC viability
same,Percent viability,[3]; Log (M) -5.33646,29.1%
same,Percent viability,[3]; Log (M) -5.81358,58.8%
same,Percent viability,[3]; Log (M) -6.2907,69.6%
same,Percent viability,[3]; Log (M) -6.76782,70.0%
same,Percent viability,[3]; Log (M) -7.24494,74.4%
same,Percent viability,[3]; Log (M) -7.72207,84.6%
same,Percent viability,[3]; Log (M) -8.19919,94.4%
same,Percent viability,[3]; Log (M) -8.67631,100.2%
same,Percent viability,[3]; Log (M) -9.15343,102.6%
same,Percent viability,[3]; Log (M) -9.63055,98.1%
same,Percent viability,[3]; Log (M) -10.1077,97.1%
same,Area under the dose-response curve (AUC) UISO Replicate 1,"[3]; follow-up screen, replicate 1",350.8
same,Area under the dose-response curve (AUC) UISO Replicate 2,"[3]; follow-up screen, replicate 2",389.2
same,Area under the dose-response curve (AUC) UISO Replicate 3,"[3]; follow-up screen, replicate 3",355.0
same,Percent viability,[4]; Log (M) -5.33646,29.1%
same,Percent viability,[4]; Log (M) -5.81358,82.7%
same,Percent viability,[4]; Log (M) -6.2907,74.7%
same,Percent viability,[4]; Log (M) -6.76782,62.9%
same,Percent viability,[4]; Log (M) -7.24494,51.8%
same,Percent viability,[4]; Log (M) -7.72207,51.5%
same,Percent viability,[4]; Log (M) -8.19919,79.6%
same,Percent viability,[4]; Log (M) -8.67631,111.3%
same,Percent viability,[4]; Log (M) -9.15343,116.9%
same,Percent viability,[4]; Log (M) -9.63055,110.0%
same,Percent viability,[4]; Log (M) -10.1077,101.6%
same,Area under the dose-response curve (AUC) MKL-2 Replicate 1,"[4]; follow-up screen, MKL-2, replicate 1",388.8
same,Area under the dose-response curve (AUC) MKL-2 Replicate 2,"[4]; follow-up screen, MKL-2, replicate 2",384.9
same,Area under the dose-response curve (AUC) MKL-2 Replicate 3,"[4]; follow-up screen, MKL-2, replicate 3",409.6
same,Percent viability,[5]; Log (M) -5.33646,26.6%
same,Percent viability,[5]; Log (M) -5.81358,59.4%
same,Percent viability,[5]; Log (M) -6.2907,79.7%
same,Percent viability,[5]; Log (M) -6.76782,87.3%
same,Percent viability,[5]; Log (M) -7.24494,90.3%
same,Percent viability,[5]; Log (M) -7.72207,87.4%
same,Percent viability,[5]; Log (M) -8.19919,90.8%
same,Percent viability,[5]; Log (M) -8.67631,96.9%
same,Percent viability,[5]; Log (M) -9.15343,92.6%
same,Percent viability,[5]; Log (M) -9.63055,87.8%
same,Percent viability,[5]; Log (M) -10.1077,88.7%
same,Area under the dose-response curve (AUC) MCC26 Replicate 1,"[5]; follow-up screen, MCC26, replicate 1",399.1
same,Area under the dose-response curve (AUC) MCC26 Replicate 2,"[5]; follow-up screen, MCC26, replicate 2",396.0
same,Area under the dose-response curve (AUC) MCC26 Replicate 3,"[5]; follow-up screen, MCC26, replicate 3",410.6
same,potency in VP-MCC cell lines versus other human cancer cell lines (GDSC),[6],higher in VP-MCC cell lines than in hundreds of other human cancer cell lines
same,Percent viability,[7]; Log (M) -5.33646,35.7%
same,Percent viability,[7]; Log (M) -5.81358,29.2%
same,Percent viability,[7]; Log (M) -6.2907,29.7%
same,Percent viability,[7]; Log (M) -6.76782,36.8%
same,Percent viability,[7]; Log (M) -7.24494,39.2%
same,Percent viability,[7]; Log (M) -7.72207,37.5%
same,Percent viability,[7]; Log (M) -8.19919,101.6%
same,Percent viability,[7]; Log (M) -8.67631,103.8%
same,Percent viability,[7]; Log (M) -9.15343,98.2%
same,Percent viability,[7]; Log (M) -9.63055,98.1%
same,Percent viability,[7]; Log (M) -10.1077,100.0%
same,Area under the dose-response curve (AUC) MKL-1 Replicate 1,"[7]; follow-up screen, MKL-1, replicate 1",300.3
same,Area under the dose-response curve (AUC) MKL-1 Replicate 2,"[7]; follow-up screen, MKL-1, replicate 2",306.3
same,Area under the dose-response curve (AUC) MKL-1 Replicate 3,"[7]; follow-up screen, MKL-1, replicate 3",312.1
same,Percent viability,[8]; Log (M) -5.33646,14.5%
same,Percent viability,[8]; Log (M) -5.81358,69.4%
same,Percent viability,[8]; Log (M) -6.2907,72.9%
same,Percent viability,[8]; Log (M) -6.76782,89.8%
same,Percent viability,[8]; Log (M) -7.24494,103.0%
same,Percent viability,[8]; Log (M) -7.72207,85.9%
same,Percent viability,[8]; Log (M) -8.19919,106.1%
same,Percent viability,[8]; Log (M) -8.67631,96.2%
same,Percent viability,[8]; Log (M) -9.15343,118.3%
same,Percent viability,[8]; Log (M) -9.63055,100.0%
same,Percent viability,[8]; Log (M) -10.1077,108.5%
same,Area under the dose-response curve (AUC) MCC13 Replicate 1,"[8]; follow-up screen, MCC13, replicate 1",420.2
same,Area under the dose-response curve (AUC) MCC13 Replicate 2,"[8]; follow-up screen, MCC13, replicate 2",430.9
same,Area under the dose-response curve (AUC) MCC13 Replicate 3,"[8]; follow-up screen, MCC13, replicate 3",459.4
